Measurements: patent publication US6420413B2, “Heterocycloalkylbenzocyclobutane and heteroarylbenzocyclobutane compounds” (Les Laboratories Servier, priority 2000, dated 2002)

Assays:
[1] = test system: spontaneous marble-burying behaviour of mice; assay: Marble-burying test in mice; type: in vivo; conditions: male NMRI mice, 30 minutes' free exploration, s.c.
Excerpt: This test enables evaluation of the capacity of pharmacological agents to inhibit the spontaneous marble-burying behaviour of mice, the inhibition being predictive of antidepressant and/or anti-impulsive action. Male mice of the NMRI strain (Iffa-Credo, l'Arbresle, France) weighing from 20 to 25 g on the day of the experiment are placed individually in Macrolon® boxes (30×18×19 cm) containing 5 cm of sawdust and covered with a perforated plexiglass plate. Twenty-four “tiger's eye” glass marbles are evenly distributed on the sawdust at the periphery of the box. At the end of 30 minutes' free exploration, the animals are removed from the box and the number of buried marbles is counted.

[2] = test system: level of serotonin, noradrenalin and dopamine in cingulate frontal cortex; assay: Microdialysis experiment in the rat; type: in vivo; conditions: rat frontal cortex dialysate, 10 mg/kg subcutaneously
Description: Rats are anaesthetised with pentobarbital (60 mg/kg i.p.). They are placed in a Kopf stereotactic device and the cannula guide is implanted in the cingulate frontal cortex in accordance with the coordinates described in the Paxinos and Watson atlas (1982) as follows: AP=+2.2; L=±0.6; DV=−0.2. The rats are placed in separate cages and are not used in dialysis until 5 days later. […] The probe is perfused at a flow rate of 1 μl/mn with a solution of 147.2 mM NaCl, 4 mM KCl and 2.3 mM CaCl2 adjusted to pH 7.3 with a phosphate buffer (0.1 M). Two hours after implantation, samples are collected every 20 minutes for 4 hours. Three baseline samples are taken before administration of the products to be tested. The rats are left in their individual cages for the whole of the experiment. When the experiment is finished, the rats are decapitated and the brain is removed and frozen in isopentane. Sections of a thickness of 100 μm are cut and stained with cresyl violet, which allows verification of the location of the probes.
The simultaneous quantification of dopamine, norepinephrine and serotonin is carried out as follows: 20 μl dialysis samples are each diluted with 20 μl of mobile phase (NaH2PO4: 75 mM, EDTA: 20 μM, sodium 1-decanesulphonate: 1 mM, methanol: 17.5%, triethylamine: 0.01%, pH: 5.70) and 33 μl samples are analysed by HPLC using a reverse phase column thermostatically maintained at 45° C. and quantified by means of a coulometric detector. The potential of the first electrode of the detector is set at −90 mV (reduction) and that of the second at +280 mV (oxidation). The mobile phase is injected at a flow rate of 2 ml/mn using a pump. The sensitivity limits for dopamine, norepinephrine and serotonin are 0.55 fmol per sample. All the products of the invention are injected subcutaneously in a volume of 1.0 ml/kg. The products are dissolved in distilled water to which a few drops of lactic acid have been added if necessary.

Row | Structure (SMILES) | Marble-burying in mice, ID50 (inhibitory dose50) [1] | increase of the level of dopamine (maximum % of the effect compared with the baseline level defined as 0%) [2] | increase of the level of noradrenalin (maximum % of the effect compared with the baseline level defined as 0%) [2] | increase of the level of serotonin (maximum % of the effect compared with the baseline level defined as 0%) [2]
1 | CN(C)CC1(C2(O)CCCCC2)Cc2cc3occc3cc21 (centres unmarked) [Example 5, 1-{5-[(Dimethylamino)methyl]-5,6-dihydrocyclobuta[f][1]benzofuran-5-yl}cyclohexanol] | 0.6 mg/kg s.c. | 400±50% | 500±13% | 250±15%
2 | CNCCC(Oc1ccc(C(F)(F)F)cc1)c1ccccc1 (centres unmarked) [Fluoxetine, fluoxetine, reference compound] | 8.03 mg/kg s.c. |  |  | 
